Patent US8343696B2, “Colored curable composition, fluorine-containing dipyrromethene compound and tautomer thereof, and fluorine-containing dipyrromethene metal complex and tautomer thereof, and color filter using the same and method for producing the color filter” (FUJIFILM Corporation, priority 2008, dated 2013)

Experiments:
Assay type in all cases: physicochemical
[1] = Heat resistance of coating film (color difference ΔEab before and after heating); conditions: 100° C. for 1 hour on hot plate
Procedure: A glass substrate having undercoat layer formed by applying the colored resin composition obtained in section 3 above was heat-treated at 100° C. for 1 hour using a hot plate, and the color difference (ΔEab) between before and after the heating was determined by using a […] MCPD-1000 (trade name, manufactured by Otsuka Electronics Co., Ltd.). The heat resistance was evaluated according to the following criteria. A smaller AEab value indicates better heat resistance.
(§1) A: ΔEab value was less than 6
(§2) B: ΔEab value was from 6 to 10
(§3) C: ΔEab value was more than 10

[2] = Absorption spectrum in ethyl acetate solution (spectrophotometer UV-2400PC)
Procedure: In consideration of film thickness, the molar absorption coefficient of the specific metal complex compounds-1, -2, -3 and -4 of the invention is preferably as high as possible, and 60,000 or higher is preferable. The maximum absorption wavelength (λmax) thereof is preferably from 520 nm to 580 nm, and more preferably from 530 nm to 570 nm, in order to improve color purity. The maximum absorption wavelength and the molar absorption coefficient are determined by using a spectrophotometer UV-2400PC (manufactured by Shimadzu Corporation).
The molar absorption coefficient (ε) of each of the obtained compounds was measured in an ethyl acetate solution using a spectrophotometer (trade name: UV-2400PC; manufactured by Shimadzu Corporation). The absorbance (Abs) at 450 nm was evaluated by normalizing the absorbance at a maximum absorption wavelength (λmax) to 1.0. […] The measurement results of the absorbance (Abs value), maximum absorption wavelength (λmax), and molar absorption coefficient (ε) are shown in Table 1.
By the method similar to the reaction scheme in Synthesis Example 1 above, the exemplary compounds (dipyrromethene metal complex compounds or tautomers thereof) shown in Table 1 were synthesized. The identification of the compounds and the measurement of the maximum absorption wavelength (λmax) and the molar absorption coefficient (ε) of the compounds were performed similarly to Synthesis Example 1 above.

[3] = Light-fastness of coating film (color difference ΔEab before and after xenon lamp irradiation); conditions: xenon lamp 20,000 luxes for 10 hours (200,000 lux·h)
Procedure: A glass substrate having undercoat layer formed by applying the colored resin composition obtained in section 3 above was irradiated with a xenon lamp at an intensity of 20,000 luxes for 10 hours (equivalent to 200,000 lux·h), and the color difference ΔEab between before and after the irradiation was determined. The light-fastness was evaluated according to the following criteria. A smaller ΔEab value indicates better light-fastness.
as §1, §2, §3

[4] = Storage stability of colored resist solution (precipitation after one month at room temperature); set-up: key: A: No precipitation was observed; B: Slight precipitation was observed; C: Precipitation was observed; conditions: negative-working colored resist solution, visual precipitation
From the text: 9.4 g of the resist solution obtained in section 1 above and 0.35 g of the exemplary compound Ia-12 synthesized above (a compound represented by Formula (4): dipyrromethene complex compound) were mixed and dissolved, whereby a colored resist solution (a negative-working ultraviolet-sensitive colored curable composition) was obtained.
The colored resist solution was stored for one month at room temperature, and then degree of precipitation was visually observed. The storage stability was evaluated according to the following criteria.
A: No precipitation was observed
B: Slight precipitation was observed
C: Precipitation was observed

[5] = Transmittance at 450 nm of the color filter; conditions: negative-working colored resist, 1.0 μm film; transmittance at λmax normalized to 2%
Procedure: The colored resist solution obtained in section 3 above was applied to an undercoat layer side of the glass substrate having an undercoat layer obtained in section 2 above by a spin coater such that a film thickness was 1.0 μm. Subsequently, the film was pre-baked at 100° C. for 120 sec, whereby a monochromatic color filter was obtained.
The transmission spectrum of the color filter obtained above was measured, and the transmittance at 450 nm was evaluated according to the following criteria. The transmittance of the color filter at 450 nm was evaluated by correcting (normalizing) the transmittance at the maximum absorption wavelength of the colorant included in the color filter to 2%. A larger transmittance indicates greater transmission of blue light, which indicates favorable magenta or violet color that can be used in a blue filter.
A: Transmittance at 450 nm was 90% or more
B: Transmittance at 450 nm was 80% or more but not more than 90%
C: Transmittance at 450 nm was not more than 80%

SMILES	Heat resistance [1]	maximum absorption wavelength (λmax) [2]	molar absorption coefficient (ε) [2]	Abs value at 450 nm when normalized to Abs = 1.0 at λmax [2]	Light-fastness [3]	Storage stability [4]	Transmittance at 450 nm [5]
CC1CC(C(C)(C)C)C(OC(=O)C2=C(c3ccccc3)C3=Cc4c(-c5ccccc5)c(C(=O)OC5C(C(C)(C)C)CC(C)CC5C(C)(C)C)c(NC(=O)c5ccc(C(F)(F)F)cc5)[n]4[Zn-]([OH])[N+]3=C2NC(=O)c2ccc(C(F)(F)F)cc2)C(C(C)(C)C)C1 (stereo not drawn) [IIb-7]	A (ΔEab value was less than 6)	563 nm	97,100	0.0123	A (ΔEab value was less than 6)	A	A (Transmittance at 450 nm was 90% or more)
CC1=C(C(=O)OC2C(C(C)(C)C)CC(C)CC2C(C)(C)C)C(NC(=O)c2ccc(F)c(F)c2)=[N+]2C1=Cc1c(C)c(C(=O)OC3C(C(C)(C)C)CC(C)CC3C(C)(C)C)c(NC(=O)c3ccc(F)c(F)c3)[n]1[Zn-]2[OH] (stereo not drawn) [IIa-13]	A (ΔEab value was less than 6)	550 nm	121,300	0.0084	A (ΔEab value was less than 6)	A	A (Transmittance at 450 nm was 90% or more)
CC1=C(C(=O)OC2C(C(C)(C)C)CC(C)CC2C(C)(C)C)C(NC(=O)c2cc(C(F)(F)F)cc(C(F)(F)F)c2)=[N+]2C1=Cc1c(C)c(C(=O)OC3C(C(C)(C)C)CC(C)CC3C(C)(C)C)c(NC(=O)c3cc(C(F)(F)F)cc(C(F)(F)F)c3)[n]1[Zn-]2[OH] (stereo not drawn) [IIa-14]	A (ΔEab value was less than 6)	551 nm	100,100	0.0114	A (ΔEab value was less than 6)	A	A (Transmittance at 450 nm was 90% or more)
Cc1c(C(=O)OC2C(C(C)(C)C)CC(C)CC2C(C)(C)C)c(NC(=O)c2cc(F)cc(F)c2)[n]2c1C=C1C(c3ccccc3)=C(C#N)C(NC(=O)C(C)Sc3cc(C(=O)O)cc(C(=O)O)c3)=[N+]1[Zn-]2[OH] (stereo not drawn) [Ia-38]	A (ΔEab value was less than 6)	558 nm	79,400	0.0191	A (ΔEab value was less than 6)	A	A (Transmittance at 450 nm was 90% or more)
CC1CC(C(C)(C)C)C(OC(=O)C2=C(c3ccccc3)C3=Cc4c(-c5ccccc5)c(C(=O)OC5C(C(C)(C)C)CC(C)CC5C(C)(C)C)c(NC(=O)c5ccc(F)c(Br)c5)[n]4[Zn-]([OH])[N+]3=C2NC(=O)c2ccc(F)c(Br)c2)C(C(C)(C)C)C1 (stereo not drawn) [IIb-24]	A (ΔEab value was less than 6)	564 nm	100,900	0.091	A (ΔEab value was less than 6)	B	A (Transmittance at 450 nm was 90% or more)
Cc1c(C(=O)OC2C(C(C)(C)C)CC(C)CC2C(C)(C)C)c(NC(=O)c2ccc(F)c(F)c2)[n]2c1C=C1C(c3ccccc3)=C(C#N)C(NC(=O)C(C)Sc3cc(C(=O)O)cc(C(=O)O)c3)=[N+]1[Zn-]2[OH] (stereo not drawn) [Ia-35]	A (ΔEab value was less than 6)	559 nm	90,100	0.0106	A (ΔEab value was less than 6)	A	A (Transmittance at 450 nm was 90% or more)

More lines, main results first:

Heat resistance [1]	maximum absorption wavelength (λmax) [2]	molar absorption coefficient (ε) [2]	Abs value at 450 nm when normalized to Abs = 1.0 at λmax [2]	Light-fastness [3]	Storage stability [4]	SMILES	Transmittance at 450 nm [5]
B (ΔEab value was from 6 to 10)	562 nm	95,600	0.0082	B (ΔEab value was from 6 to 10)	A	CC1CC(C(C)(C)C)C(OC(=O)c2c(-c3ccccc3)c(C=C3N=C(NC(=O)C(C)SCCCS(=O)(=O)[O-])C(C#N)=C3c3ccccc3)[n]([Zn][OH])c2NC(=O)c2cc(F)cc(F)c2)C(C(C)(C)C)C1.[Na+] (stereo not drawn) [Ib-40]	A (Transmittance at 450 nm was 90% or more)
A (ΔEab value was less than 6)	558 nm	89,100	0.0101	A (ΔEab value was less than 6)	A	CC(=O)NC1=[N+]2C(=Cc3c(-c4ccccc4)c(C(=O)OC4C(C(C)(C)C)CC(C)CC4C(C)(C)C)c(NC(=O)c4cc(F)c(F)c(F)c4)[n]3[Zn-]2[OH])C(c2ccccc2)=C1C#N (stereo not drawn) [Ib-61]	A (Transmittance at 450 nm was 90% or more)
A (ΔEab value was less than 6)	562 nm	76,500	0.0195	A (ΔEab value was less than 6)	A	CC1CC(C(C)(C)C)C(OC(=O)c2c(-c3ccccc3)c3[n](c2NC(=O)c2cc(C(F)(F)F)cc(C(F)(F)F)c2)[Zn-]([OH])[N+]2=C(NC(=O)C(C)Sc4cc(C(=O)O)cc(C(=O)O)c4)C(C#N)=C(c4ccccc4)C2=C3)C(C(C)(C)C)C1 (stereo not drawn) [Ib-41]	A (Transmittance at 450 nm was 90% or more)
B (ΔEab value was from 6 to 10)	563 nm	88,700	0.0142	B (ΔEab value was from 6 to 10)	A	CC1CC(C(C)(C)C)C(OC(=O)c2c(-c3ccccc3)c3[n](c2NC(=O)c2cccc(C(F)(F)F)c2)[Zn-]([OH])[N+]2=C(NC(=O)C(C)SCCCS(=O)(=O)[O-])C(C#N)=C(c4ccccc4)C2=C3)C(C(C)(C)C)C1.[Na+] (stereo not drawn) [Ib-20]	A (Transmittance at 450 nm was 90% or more)
A (ΔEab value was less than 6)	564 nm	106,400	0.0099	A (ΔEab value was less than 6)	A	CC1CC(C(C)(C)C)C(OC(=O)c2c(-c3ccccc3)c3[n](c2NC(=O)c2c(F)c(F)c(F)c(F)c2F)[Zn-]([OH])[N+]2=C(NC(=O)C(C)Sc4cc(C(=O)O)cc(C(=O)O)c4)C(C#N)=C(c4ccccc4)C2=C3)C(C(C)(C)C)C1 (stereo not drawn) [Ib-75]	A (Transmittance at 450 nm was 90% or more)
A (ΔEab value was less than 6)	560 nm	66,100	0.0186	A (ΔEab value was less than 6)	B	CC1CC(C(C)(C)C)C(OC(=O)c2c(-c3ccccc3)c3[n](c2NC(=O)c2cccc(F)c2C(=O)O)[Zn-]([OH])[N+]2=C(NC(=O)C(C)Sc4cc(C(=O)O)cc(C(=O)O)c4)C(C#N)=C(c4ccccc4)C2=C3)C(C(C)(C)C)C1 (stereo not drawn) [Ib-46]	A (Transmittance at 450 nm was 90% or more)
